From patent US8299129B2, “Peptide lipid-containing carrier and method for introducing compound into cells using same” (Fukuoka Prefectural Government, priority 2006, dated 2012)

Assays:
[1] = test system: Balb/c mouse; assay: Introduction of Cy3-labeled siRNA into mouse tissues using peptide lipid, fluorescence microscopy of removed tissues; type: in vivo; details: tail vein injection, Cy3-labeled siRNA complex, 4 hours
Protocol: (§1) Cy3-labeled siRNA ([…], purchased from Dharmacon) was mixed with 200 μl of 150 mM NaCl solution, 1.3 mM peptide lipid (RE-C12) (16 μl) was mixed with the above-mentioned siRNA solution and the mixture was incubated for 5 min to give peptide lipid—RNA complex. This was injected to Balb/c mouse (15-week-old) from the tail vein. […] Four hours later, the mouse was autopsied and each tissue (heart, lung, liver, kidney, spleen) was removed, which was cut into small pieces and observed with a fluorescence microscope. When peptide lipid was used as a carrier, siRNA could be introduced into each tissue in the body.

[2] = test system: Balb/c mouse; assay: Acute toxicity in mouse after tail vein injection of peptide lipid-RNA complex; type: in vivo; details: at the concentration tested
Protocol: as §1

## Arg-Glu-C12 [RE-C12]
[1]
  Introduction efficiency into the liver and spleen: particularly superior
[1]; heart
  evaluation (introduction of siRNA), heart: 5%
[1]; kidney
  evaluation (introduction of siRNA), kidney: 5%
[1]; liver
  evaluation (introduction of siRNA), liver: 25%
[1]; lung
  evaluation (introduction of siRNA), lung: 10%
[1]; spleen
  evaluation (introduction of siRNA), spleen: 30%
[2]
  acute toxicity: acute toxicity was not observed
